Laboratory results published in paper PMC5078989, “Targeted inhibition of the COP9 signalosome for treatment of cancer” (Nature Communications, 2016).

Columns and labels:
human MMP1 = molecular target: T1, human MMP1 (Homo sapiens, UniProt P03956); assay: Selectivity assay MMP1; type: biochemical
T1 construct: Human MMP1 (Uniprot P03956), amino acids 1–469; made in house; host or cells: stably transfected C127 cells
T1 sequence (P03956 20-469): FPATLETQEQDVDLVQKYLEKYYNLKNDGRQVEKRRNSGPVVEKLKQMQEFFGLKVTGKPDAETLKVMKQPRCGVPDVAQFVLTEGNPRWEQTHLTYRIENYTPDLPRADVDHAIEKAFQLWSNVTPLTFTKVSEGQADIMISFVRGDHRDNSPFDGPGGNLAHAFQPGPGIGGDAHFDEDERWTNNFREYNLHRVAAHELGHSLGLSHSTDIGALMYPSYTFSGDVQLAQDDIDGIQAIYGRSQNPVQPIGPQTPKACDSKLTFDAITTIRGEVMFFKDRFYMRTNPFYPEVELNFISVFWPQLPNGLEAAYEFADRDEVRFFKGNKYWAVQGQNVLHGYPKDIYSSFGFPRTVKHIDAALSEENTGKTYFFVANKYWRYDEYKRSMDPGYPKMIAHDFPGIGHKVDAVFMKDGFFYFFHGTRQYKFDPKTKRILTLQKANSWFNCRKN
Protocol: All biochemical assays were performed at room temperature in 384-well plates in a total volume of 25.25 μl per well. Test compounds were dissolved in 90% (v/v) DMSO/water. For the assays, 250 nl of compound solution was added per well, followed by addition of 12.5 μl protease solution. After 70 min of pre-incubation at room temperature, the reactions were started by addition of 12.5 μl substrate solution and followed either by measuring fluorescence intensity (rhodamine 110-based substrates) or by fluorescence lifetime (PT14-based substrates). The effect of compound on enzymatic activity was obtained from the linear part of the progress curves and determined after 1 h (t=60 min). The final compound concentrations ranged from 100 μM to 1 nM.
Matrix metalloproteinases. […]

SU-DHL-1 xenografts = assay: Immunoblotting for Cul1 and Skp2 of tumours excised at end of treatment; type: in vivo, SCID-bg mice; settings: tumours excised at the end of the study
Protocol: (a) SU-DHL-1 xenografts were grown in SCID-bg mice and dosed by oral administration with either vehicle control or CSN5i-3 at the indicated doses and schedules. Mean tumour volumes are shown±s.e.m. (n=4; P<0.05). (b) Immunoblotting for Cul1 and Skp2 of tumours excised at the end of treatment. (c) Pharmacokinetics of CSN5i-3 post second to last dose. Mean blood concentrations are shown±s.e.m. (n=4). […] Cells from longer compound incubations were also lysed in RIPA buffer, which allows the protein concentration to be determined by BCA Protein Assay Kit (Pierce). Proteins were separated by SDS-PAGE using 4-20% Tris-Glycine Gels (Invitrogen) and subsequently transferred to polyvinylidene difluoride membranes using a Trans-Blot Turbo System (BioRad). […] Cul1 (1:500; #718700), Cul2 (1:250; #7001792), Rbx1 (1:300; #342500) (Invitrogen); Fbxw7 (1:300; # 55290-1-AP), Fbxo22 (1:500; #13606-1-AP) (Proteintech); Cul3 (1:1,000; # […]), CSN5 (1:2,000; #[…]) (Bethyl Laboratories); Fbxo3 (1:300; #AP9195) (Abgent); p21 (1:500; #556431) (BD Biosciences); Fbxo30 (1:500; # H00084085-B01) (Abnova); β-Actin (1:5,000; #A5441) (Sigma-Aldrich); Fbxo7 (1:500; #PA527589) (Pierce). Horseradish peroxidase-conjugated secondary antibodies (1:3,000) were purchased from Promega AG and bound antibody was detected by enhanced chemiluminescence (Pierce). […]

CC(C)n1nc(C(F)F)cc1C(=O)Nc1ccc([C@H]2[C@@H](O)CCCc3cncn32)c(-c2ccccc2)c1 [CSN5i-3, 3-(Difluoromethyl)-N-(6-((5S,6S)-6-hydroxy-6,7,8,9-tetrahydro-5H-imidazo[1,5-a]azepin-5-yl)-[1,1′-biphenyl]-3-yl)-1-isopropyl-1H-pyrazole-5-carboxamide]
IC50 (human MMP1): > 100 µM | Cul1 deneddylation in tumours (SU-DHL-1 xenografts): inhibited | Skp2 levels in tumours (SU-DHL-1 xenografts): reduced
